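Test compounds were applied to cells in 96-well plates for 48 hours at 5 doses. GI50: concentration for 50% inhibition of growth.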 The source made the active and inactive calls. Rule as the data show it: active = GI50 up to about 1.1 µM and inactive = higher.
Experiments:
Assay in all cases: NCI anticancer screen, dose series, 48 h
A498 = test system: A498
CAKI-1 = test system: CAKI-1
CCRF-CEM = test system: CCRF-CEM
HCT-15 = test system: HCT-15
HL-60 = test system: HL-60
MDA-N = test system: MDA-N
NCI-H23 = test system: NCI-H23
NCI-H460 = test system: NCI-H460
OVCAR-5 = test system: OVCAR-5
SF-539 = test system: SF-539
SK-MEL-2 = test system: SK-MEL-2
SN12C = test system: SN12C
SNB-19 = test system: SNB-19
SW-620 = test system: SW-620
TK-10 = test system: TK-10
NCI-H226 = test system: NCI-H226
NCI-H522 = test system: NCI-H522
RXF 393 = test system: RXF 393

SMILES	GI50 (A498)	GI50 (CAKI-1)	GI50 (CCRF-CEM)	GI50 (HCT-15) [µM]	GI50 (HL-60)	GI50 (MDA-N)	GI50 (NCI-H23)	GI50 (NCI-H460)	GI50 (OVCAR-5)	GI50 (SF-539)	GI50 (SK-MEL-2)	GI50 (SN12C)	GI50 (SNB-19)	GI50 (SW-620)	GI50 (TK-10)	GI50 (NCI-H226)	GI50 (NCI-H522)	GI50 (RXF 393)
CC1CN=C(Nc2ccc(F)cc2F)S1 (stereo not drawn)	> 100 µM (inactive)	> 100 µM (inactive)	> 100 µM (inactive)	> 100	> 100 µM (inactive)	> 100 µM (inactive)	> 100 µM (inactive)	> 100 µM (inactive)	> 100 µM (inactive)	> 100 µM (inactive)	> 100 µM (inactive)	> 100 µM (inactive)	> 100 µM (inactive)	> 100 µM (inactive)	> 100 µM (inactive)			
CSC(SC)=C(C(=O)O)P(=O)(O)O	> 100 µM (inactive)	> 100 µM (inactive)	> 100 µM (inactive)	> 100	> 100 µM (inactive)	> 100 µM (inactive)	> 100 µM (inactive)	> 100 µM (inactive)	> 100 µM (inactive)	> 100 µM (inactive)	> 100 µM (inactive)	> 100 µM (inactive)	> 100 µM (inactive)	> 100 µM (inactive)	> 100 µM (inactive)	> 100 µM (inactive)	> 100 µM (inactive)	> 100 µM (inactive)
c1ccc(OCc2nnc3n2N=C(c2ccccc2)CS3)cc1	53.5 µM (inactive)	71 µM (inactive)	> 100 µM (inactive)	> 100	> 100 µM (inactive)		> 100 µM (inactive)	> 100 µM (inactive)	> 100 µM (inactive)	> 100 µM (inactive)	75.3 µM (inactive)	> 100 µM (inactive)	> 100 µM (inactive)	> 100 µM (inactive)	> 100 µM (inactive)	> 100 µM (inactive)	55.5 µM (inactive)	> 100 µM (inactive)
c1ccc(C2=NOC3(c4ccccc4)SC4CCCCC4CN23)cc1 (stereo not drawn)	35.5 µM (inactive)	19.5 µM (inactive)	6.38 µM (inactive)	26.7	5.4 µM (inactive)		29.8 µM (inactive)	32.6 µM (inactive)	> 100 µM (inactive)	18.7 µM (inactive)	31.3 µM (inactive)	52.5 µM (inactive)	62.4 µM (inactive)	30.6 µM (inactive)	83.9 µM (inactive)	36.6 µM (inactive)	9.42 µM (inactive)	15.9 µM (inactive)
Nc1ncnc2c(C3OC(CO)C(O)C3O)scc12 (stereo not drawn)	0.0316 µM (active)	< 0.01 µM (active)	0.0597 µM (active)	0.00278	< 0.001 µM (active)		0.152 µM (active)	0.00615 µM (active)	0.0222 µM (active)	4.94 µM (inactive)	0.0431 µM (active)	0.373 µM (active)	1.38 µM (inactive)	0.0192 µM (active)	0.191 µM (active)	0.0386 µM (active)	0.0107 µM (active)	0.222 µM (active)
CC(C)(c1ccc(OC#N)cc1)c1ccc(OC#N)cc1	> 100 µM (inactive)	> 100 µM (inactive)	> 55.7 µM (inactive)	20.3	> 55 µM (inactive)		> 100 µM (inactive)	> 58.7 µM (inactive)	> 100 µM (inactive)	> 100 µM (inactive)	> 100 µM (inactive)	> 100 µM (inactive)	> 100 µM (inactive)	> 100 µM (inactive)	> 100 µM (inactive)	> 100 µM (inactive)	23.2 µM (inactive)	> 87.9 µM (inactive)
Cc1c(C2Cc3ccccc3N2C(=O)/C=C\C(=O)O)c2ccccc2n1C (stereo not drawn)	18 µM (inactive)	25.8 µM (inactive)	30.8 µM (inactive)	> 100	18.1 µM (inactive)		25.9 µM (inactive)	> 100 µM (inactive)	48.4 µM (inactive)	21.6 µM (inactive)	17.7 µM (inactive)	19.5 µM (inactive)	17.4 µM (inactive)	20 µM (inactive)	22 µM (inactive)	20.2 µM (inactive)	19.2 µM (inactive)	17.2 µM (inactive)

Source: ChEMBL document CHEMBL1201862, “PubChem BioAssay data set” (2004)
